Measurements taken from paper PMC11357160, “Gouregine, an α-Gem-Dimethyltetradehydrocularine Alkaloid, and Other Aporphinoid Alkaloids from the Bark of Guatteria olivacea (Annonaceae) and Their In Vitro Cytotoxic Activities” (Molecules, 2024).
Several values for one entry are separate records, joined by “and”; a condition that tells them apart may be missing. Identical values can stand only once. Counter-ions that a name gives are not always drawn.

Key:
[1] = tested on: MRC-5 (human lung fibroblast); test: Alamar blue cytotoxicity assay, 72 h, noncancerous MRC-5; assay type: cell-based; conditions: MRC5, MRC-5 noncancerous cells, 72 h incubation
Protocol: (§1) The in vitro cytotoxic activities of the isolated compounds 1–9 were evaluated against the cancer cell lines HepG2 (human hepatocellular carcinoma), KG-1a (human myeloid leukemia), and HCT116 (human colon carcinoma), and the noncancerous cell line MRC-5 (human lung fibroblast) via the Alamar blue assay after 72 h of incubation.
(§2) The HepG2 (human hepatocellular carcinoma), KG-1a (human myeloid leukemia), HCT116 (human colon carcinoma), and MRC-5 (human lung fibroblast) cell lines were obtained from the American Type Culture Collection (ATCC, Manassas, VA, USA) and were cultured as recommended by the American Type Culture Collection (ATCC) animal culture guide. All the cell lines were tested for mycoplasma via a mycoplasma stain kit (Sigma-Aldrich) to validate the use of cells that were free from contamination.
(§3) For the cytotoxicity assay, cell viability was quantified via the Alamar blue method, as previously described. For all the experiments, the cells were plated in 96-well plates. The chemical constituents evaluated varied in purity between 90% and 99.8%, which was determined on the basis of the relative integrals of the signals of the constituents in relation to the signals of the impurities contained. Most of the constituents had purities greater than 95%, except for constituents 4 and 5, which had purities of approximately 90%. The chemical constituents were dissolved in dimethyl sulfoxide (DMSO, Vetec Química Fina Ltda., Duque de Caxias, RJ, Brazil), added to each well, and incubated for 72 h. […] At the end of the treatment, 20 µL of a stock solution (0.312 mg/mL) of resazurin (Sigma-Aldrich Co.) was added to each well. The absorbances at 570 nm and 600 nm were measured via a SpectraMax 190 Microplate Reader (Molecular Devices, Sunnyvale, CA, USA). The half-inhibitory concentration (IC50) was obtained via nonlinear regression with 95% confidence intervals (CIs 95%) via the software GraphPad Prism 8 (Intuitive Software for Science; San Diego, CA, USA).

[2] = tested on: HepG2 (human hepatocellular carcinoma); test: Alamar blue cytotoxicity assay, 72 h, HepG2; assay type: cell-based; conditions: for IC50: Homo sapiens, HepG2, Alamar blue, 72 h incubation
Protocol: as §1, §2, §3

[3] = tested on: HCT116 (human colon carcinoma); test: Alamar blue cytotoxicity assay, 72 h, HCT116; assay type: cell-based; conditions: for IC50: Homo sapiens, HCT-116, HCT116, Alamar blue, 72 h incubation; for Selectivity index (SI): SI = IC50 [noncancerous cells MRC-5]/IC50 [HCT116]
Protocol: as §1, §2, §3

cancer cells = tested on: cancer cells; set-up: method as in PMID 25065531, PMID 33290909, PMID 15540220, PMID 12951096, PMID 35597316; conditions: cited from earlier work
HL-60 leukemia cells = tested on: HL-60 leukemia cells; set-up: method as in ref 47 Kim et al.; conditions: HL-60 cells, via p38 MAPK pathway; ref 47 Kim et al.; cited from earlier work
[4] = set-up: method as in PMID 25065531, PMID 33290909, PMID 15540220, PMID 12951096, PMID 35597316; conditions: cited from earlier work
[5] = tested on: KG-1a (human myeloid leukemia); test: Alamar blue cytotoxicity assay, 72 h, KG-1a; assay type: cell-based; conditions: 72 h incubation
Protocol: as §2
as §3, with “Most of the constituents had purities greater than 95%, except for constituents 4 and 5, which had purities of approximately 90%.” left out, “The half-inhibitory concentration (IC50) was obtained via nonlinear regression with 95% confidence intervals (CIs 95%) via the software GraphPad Prism 8 (Intuitive Software for Science; San Diego, CA, USA).” left out

[6] = tested on: human colon cancer cell lines and cancer stem cells (Wnt/β-catenin); set-up: method as in PMID 37656375; conditions: through the inhibition of Wnt/β-catenin; cited from earlier work
[7] = tested on: Akt activation in anaplastic human thyroid cancer cells; set-up: method as in PMID 38139812; conditions: cited from earlier work
[8] = set-up: method as in ref 41 = [41]; 41. Osorio D.E.J. Montoya P.G.L. Muñoz D.K. Arango A.G.J. Actividad antiplasmodial de alcaloides aporfínicos de Rollinia pittieri Y Pseudomalmea boyacana (Annonaceae) Vitae 2006 13 49 54; conditions: cited from earlier work
human cancer cells = tested on: human cancer cells; set-up: method as in ref 41 = [41]; 41. Osorio D.E.J. Montoya P.G.L. Muñoz D.K. Arango A.G.J. Actividad antiplasmodial de alcaloides aporfínicos de Rollinia pittieri Y Pseudomalmea boyacana (Annonaceae) Vitae 2006 13 49 54; conditions: cited from earlier work
[9] = tested on: CAOV-3 ovarian cancer cells; set-up: method as in PMID 25792804; conditions: CAOV-3 cells, mitochondrial pathway, activation of caspase-3 and caspase-9; cited from earlier work

Row | Structure (SMILES) | IC50 [1] | IC50 [2] | IC50 [3] | also measured
1 | COc1c2c3c(c(OC)c1OC)-c1ccc(O)cc1C(C)(C)C3=NCC2 [9-hydroxyiguattescine (4), 9-hydroxyiguattescine] | > 25 µg/mL and > 70.7 µM | > 25 µg/mL and > 70.7 µM | > 25 µg/mL and > 70.7 µM | 
2 | C=C[C@@]1(C)CC=C2C(CCC3[C@](C)(C(=O)O)CCC[C@@]23C)C1 (stereo partly drawn) [Acanthoic acid (7), acanthoic acid] | > 25 µg/mL and > 82.7 µM | 14.6 µg/mL and 48.4 µM | 21.2 µg/mL and 70.2 µM | cytotoxicity to cancer cells (cancer cells): low cytotoxicity; apoptotic cell death (HL-60 leukemia cells): causing apoptotic cell death; anti-inflammatory activity [4]: anti-inflammatory activity
3 | COc1c(O)c2c3c(c1OC)CCN=C3C(C)(C)c1cc(O)ccc1-2 [Dihydromelosmine (5), dihydromelosmine] | > 25 µg/mL and > 73.7 µM | > 25 µg/mL and > 73.7 µM | > 25 µg/mL and > 73.7 µM | 
4 | COc1cccc2c1C(=O)c1c(O)c3c(c(O)c1C2=O)C[C@@](O)(C(=O)CO)C[C@@H]3O[C@H]1C[C@H](N)[C@H](O)[C@H](C)O1 [Doxorubicin, doxorubicin hydrochloride, reference compound] | 1.42 µg/mL and 2.61 µM | 0.04 µg/mL and 70 nM | 0.2 µg/mL and 360 nM | Selectivity index (SI) ([2]; SI = IC50 [noncancerous cells MRC-5]/IC50 [HepG2]): 35.50; IC50 [5]: 0.22 µg/mL and 400 nM; Selectivity index (SI) [3]: 7.10
5 | COc1c(O)c2c3c(nccc3c1OC)C(C)(C)c1cc(O)ccc1O2 [Gouregine (9), gouregine] | > 25 µg/mL and > 70.7 µM | > 25 µg/mL and > 70.7 µM |  | IC50 [5]: > 25 µg/mL and > 70.7 µM
6 | COc1c2c3c(c(OC)c1OC)-c1ccc(O)cc1C(C)(O)C3=NCC2 (stereo not drawn) [Guattouregidine (8), guattouregidine] | > 25 µg/mL and > 73.2 µM | > 25 µg/mL and > 73.2 µM | > 25 µg/mL and > 73.2 µM | 
7 | COc1c(O)c2c3c(c1OC)CCN[C@@H]3Cc1ccccc1-2 [Isopiline (1), isopiline] | > 25 µg/mL and > 84.1 µM |  | > 25 µg/mL and > 84.1 µM | 
8 | COc1cc2ccnc3c2c(c1OC)-c1ccccc1C3=O [Lysicamine (6), lysicamine] | 17.2 µg/mL and 59.2 µM |  | 6.64 µg/mL and 22.8 µM | effect on colon cancer cell lines and cancer stem cells [6]: suppress human colon cancer cell lines and cancer stem cells; effect on Akt activation [7]: inhibit Akt activation; Selectivity index (SI) [3]: 2.60
9 | COc1c(O)c2c3c(nccc3c1OC)C(C)(C)c1cc(O)ccc1-2 [Melosmine (3), melosmine] | 23.7 µg/mL and 70.3 µM |  | 16.8 µg/mL and 49.7 µM | antimalarial activity [8]: antimalarial agent; Selectivity index (SI) [3]: 1.41; cytotoxicity to human cancer cells (human cancer cells): low cytotoxicity
10 | COc1c2c3c(c(OC)c1OC)-c1ccccc1CC3NCC2 (stereo not drawn) [O-Methylisopiline (2), O-methylisopiline] | > 25 µg/mL and > 80.3 µM |  | > 25 µg/mL and > 80.3 µM | 
11 | O=C1c2ccccc2-c2c3c(cc4ccnc1c24)OCO3 [liriodenine] |  |  |  | apoptosis [9]: caused apoptosis
